Laboratory results published in patent US20240254111A1, “SUBSTITUTED BENZAMIDES AS HERBICIDES” (SYNGENTA CROP PROTECTION AG, priority 2021, published 2024).

How the values were obtained:
Type in all cases: in vivo
[1] = system: Echinochloa crus-galli (ECHCG); test: Glasshouse pre-/post-emergence herbicide test, Table B2; conditions: 130 g/h, evaluated after 13 days
Method: (§1) Seeds of a variety of test species are sown in standard soil in pots Amaranthus retoflexus (AMARE), Setaria faberi (SETFA), Echinochloa crus-galli (ECHCG), Ipomoea hederacea (IPOHE)). After cultivation for one day (pre-emergence) or after 8 days cultivation (post-emergence) under controlled conditions in a glasshouse (at 24/16° C., day/night; 14 hours light; 65% humidity), the plants are sprayed with an aqueous spray solution derived from the formulation of the technical active ingredient in acetone/water (50:50) solution containing 0.5% Tween 20 (polyoxyethelyene sorbitan monolaurate, CAS RN 9005-64-5). Compounds are applied at 130 g/h unless otherwise indicated. The test plants are then grown in a glasshouse under controlled conditions in a glasshouse (at 24/16° C., day/night; 14 hours light; 65% humidity) and watered twice daily. After 13 days for pre and post-emergence, the test is evaluated for the percentage damage caused to the plant. The biological activities are shown in the following table on a five-point scale (5=80-100%; 4=60-79%; 3=40-59%; 2=20-39%; 1=0-19%).

[2] = system: Amaranthus retoflexus (AMARE); test: as above; conditions: 130 g/h, evaluated after 13 days
Method: as §1

[3] = system: Ipomoea hederacea (IPOHE); test: as above; conditions: 130 g/h, evaluated after 13 days
Method: as §1

[4] = system: Setaria faberi (SETFA); test: as above; conditions: 130 g/h, evaluated after 13 days
Method: as §1

[5] = system: Euphorbia heterophylla (EPHHIL); test: Glasshouse herbicide test, Table B1; conditions: POST Application, evaluated after 14 days
[6] = system: Panicum miliaceum (PANMVI); test: Glasshouse herbicide test, Table B1; conditions: POST Application, evaluated after 14 days
[7] = system: Oryza sativa (ORYSA, Rice); test: Glasshouse herbicide test, Table B1 (crop damage); conditions: POST Application, evaluated after 14 days
[8] = system: Sinapis arvensis (SINAR); test: Glasshouse herbicide test, Table B1; conditions: POST Application, evaluated after 14 days

**Q.** How did the “ECHCG percentage damage, five-point scale” value (shortened to “ECHCG percentage damage”) ([1]; POST Application) turn out when `CCn1nnnc1NC(=O)c1ccc(OC(F)(F)F)c(NC(=O)C2CCOCC2)c1Cl` [Compound 1.011] was run?
**A.** 5 (5=80-100%)

**Q.** What about the “ECHCG percentage damage” value ([1]; PRE Application) of the same compound?
**A.** 5 (5=80-100%)

**Q.** What about the “AMARE percentage damage, five-point scale” value (“AMARE percentage damage” below) ([2]; POST Application) of the same compound?
**A.** 5 (5=80-100%)

**Q.** What about the “AMARE percentage damage” value ([2]; PRE Application) of the same compound?
**A.** 5 (5=80-100%)

**Q.** What about the “IPOHE percentage damage, five-point scale” value (from here on “IPOHE percentage damage”) ([3]; POST Application) of the same compound?
**A.** 5 (5=80-100%)

**Q.** And the “IPOHE percentage damage” value ([3]; PRE Application)?
**A.** 5 (5=80-100%)

**Q.** What about the “SETFA percentage damage, five-point scale” value (from here on “SETFA percentage damage”) ([4]; POST Application) of the same compound?
**A.** 5 (5=80-100%)

**Q.** What about the “SETFA percentage damage” value ([4]; PRE Application) of the same compound?
**A.** 5 (5=80-100%)

**Q.** Which results are given for `Cn1nnnc1NC(=O)c1ccc(OC(F)(F)F)c(NC(=O)C2CCOCC2)c1Cl` [Compound 1.001, N-[2-chloro-3-[(1-methyltetrazol-5-yl)carbamoyl]-6-(trifluoromethoxy)phenyl]-tetrahydropyran-4-carboxamide]?
**A.** EPHHL damage to plant (100=total damage; 0=no damage) ([5]; rate 30 g/ha): 100; EPHHL damage to plant (100=total damage; 0=no damage) ([5]; rate 130 g/ha): 100; EPHHL damage to plant (100=total damage; 0=no damage) ([5]; rate 250 g/ha): 100; ECHCG percentage damage, five-point scale ([1]; POST Application): 5 (5=80-100%); ECHCG percentage damage, five-point scale ([1]; PRE Application): 5 (5=80-100%); AMARE percentage damage, five-point scale ([2]; POST Application): 5 (5=80-100%); AMARE percentage damage, five-point scale ([2]; PRE Application): 5 (5=80-100%); IPOHE percentage damage, five-point scale ([3]; POST Application): 5 (5=80-100%); IPOHE percentage damage, five-point scale ([3]; PRE Application): 4 (4=60-79%); SETFA percentage damage, five-point scale ([4]; POST Application): 5 (5=80-100%); SETFA percentage damage, five-point scale ([4]; PRE Application): 5 (5=80-100%); PANMI damage to plant (100=total damage; 0=no damage) ([6]; rate 30 g/ha): 90; PANMI damage to plant (100=total damage; 0=no damage) ([6]; rate 130 g/ha): 100; PANMI damage to plant (100=total damage; 0=no damage) ([6]; rate 250 g/ha): 100; ORYSA damage to plant (100=total damage; 0=no damage) ([7]; rate 30 g/ha): 0; ORYSA damage to plant (100=total damage; 0=no damage) ([7]; rate 130 g/ha): 0; ORYSA damage to plant (100=total damage; 0=no damage) ([7]; rate 250 g/ha): 0; SINAR damage to plant (100=total damage; 0=no damage) ([8]; rate 30 g/ha): 100; SINAR damage to plant (100=total damage; 0=no damage) ([8]; rate 130 g/ha): 100; SINAR damage to plant (100=total damage; 0=no damage) ([8]; rate 250 g/ha): 100

**Q.** How did the “EPHHL damage to plant (100=total damage; 0=no damage)” value ([5]; rate 30 g/ha) turn out when `Cn1nnnc1NC(=O)c1ccc(OC(F)F)c(NC(=O)C2CCOCC2)c1Cl` [Compound 1.002, N-[2-chloro-6-(difluoromethoxy)-3-[(1-methyltetrazol-5-yl)carbamoyl]phenyl]tetrahydropyran-4-carboxamide] was run?
**A.** 90

**Q.** What about the “EPHHL damage to plant (100=total damage; 0=no damage)” value ([5]; rate 130 g/ha) of the same compound?
**A.** 100

**Q.** What about the “EPHHL damage to plant (100=total damage; 0=no damage)” value ([5]; rate 250 g/ha) of the same compound?
**A.** 100

**Q.** And the “ECHCG percentage damage” value ([1]; POST Application)?
**A.** 5 (5=80-100%)

**Q.** What about the “ECHCG percentage damage” value ([1]; PRE Application) of the same compound?
**A.** 5 (5=80-100%)

**Q.** And the “AMARE percentage damage” value ([2]; POST Application)?
**A.** 5 (5=80-100%)

**Q.** And the “AMARE percentage damage” value ([2]; PRE Application)?
**A.** 5 (5=80-100%)

**Q.** What about the “IPOHE percentage damage” value ([3]; POST Application) of the same compound?
**A.** 4 (4=60-79%)

**Q.** And the “IPOHE percentage damage” value ([3]; PRE Application)?
**A.** 5 (5=80-100%)

**Q.** And the “SETFA percentage damage” value ([4]; POST Application)?
**A.** 5 (5=80-100%)

**Q.** And the “SETFA percentage damage” value ([4]; PRE Application)?
**A.** 5 (5=80-100%)

**Q.** What about the “PANMI damage to plant (100=total damage; 0=no damage)” value ([6]; rate 30 g/ha) of the same compound?
**A.** 90

**Q.** What about the “PANMI damage to plant (100=total damage; 0=no damage)” value ([6]; rate 130 g/ha) of the same compound?
**A.** 100

**Q.** And the “PANMI damage to plant (100=total damage; 0=no damage)” value ([6]; rate 250 g/ha)?
**A.** 100

**Q.** And the “ORYSA damage to plant (100=total damage; 0=no damage)” value ([7]; rate 30 g/ha)?
**A.** 0

**Q.** And the “ORYSA damage to plant (100=total damage; 0=no damage)” value ([7]; rate 130 g/ha)?
**A.** 10

**Q.** What about the “ORYSA damage to plant (100=total damage; 0=no damage)” value ([7]; rate 250 g/ha) of the same compound?
**A.** 20

**Q.** And the “SINAR damage to plant (100=total damage; 0=no damage)” value ([8]; rate 30 g/ha)?
**A.** 90

**Q.** And the “SINAR damage to plant (100=total damage; 0=no damage)” value ([8]; rate 130 g/ha)?
**A.** 100

**Q.** What about the “SINAR damage to plant (100=total damage; 0=no damage)” value ([8]; rate 250 g/ha) of the same compound?
**A.** 100

**Q.** For `Cn1nnnc1NC(=O)c1ccc(OC(F)(F)F)c(NC(=O)C2(C)CCOCC2)c1Cl` [Compound 1.007], which “ECHCG percentage damage” value ([1]; POST Application) is on record?
**A.** 5 (5=80-100%)

**Q.** And the “ECHCG percentage damage” value ([1]; PRE Application)?
**A.** 2 (2=20-39%)

**Q.** What about the “AMARE percentage damage” value ([2]; POST Application) of the same compound?
**A.** 5 (5=80-100%)

**Q.** And the “AMARE percentage damage” value ([2]; PRE Application)?
**A.** 5 (5=80-100%)

**Q.** And the “IPOHE percentage damage” value ([3]; PRE Application)?
**A.** 3 (3=40-59%)

**Q.** And the “SETFA percentage damage” value ([4]; POST Application)?
**A.** 5 (5=80-100%)

**Q.** And the “SETFA percentage damage” value ([4]; PRE Application)?
**A.** 1 (1=0-19%)

**Q.** What does the source list for `CCn1nnnc1NC(=O)c1ccc(OC(F)F)c(NC(=O)C2CCOCC2)c1Cl` [Compound 1.012]?
**A.** ECHCG percentage damage, five-point scale ([1]; POST Application): 5 (5=80-100%); ECHCG percentage damage, five-point scale ([1]; PRE Application): 5 (5=80-100%); AMARE percentage damage, five-point scale ([2]; POST Application): 5 (5=80-100%); AMARE percentage damage, five-point scale ([2]; PRE Application): 4 (4=60-79%); IPOHE percentage damage, five-point scale ([3]; POST Application): 4 (4=60-79%); IPOHE percentage damage, five-point scale ([3]; PRE Application): 4 (4=60-79%); SETFA percentage damage, five-point scale ([4]; POST Application): 5 (5=80-100%); SETFA percentage damage, five-point scale ([4]; PRE Application): 3 (3=40-59%)

**Q.** What does the source list for `Cn1nnnc1NC(=O)c1ccc(OC(F)F)c(NC(=O)C2(C)CCOCC2)c1Cl` [Compound 1.009]?
**A.** ECHCG percentage damage, five-point scale ([1]; POST Application): 4 (4=60-79%); ECHCG percentage damage, five-point scale ([1]; PRE Application): 1 (1=0-19%); AMARE percentage damage, five-point scale ([2]; POST Application): 5 (5=80-100%); AMARE percentage damage, five-point scale ([2]; PRE Application): 5 (5=80-100%); IPOHE percentage damage, five-point scale ([3]; POST Application): 4 (4=60-79%); IPOHE percentage damage, five-point scale ([3]; PRE Application): 2 (2=20-39%); SETFA percentage damage, five-point scale ([4]; POST Application): 2 (2=20-39%); SETFA percentage damage, five-point scale ([4]; PRE Application): 1 (1=0-19%)

**Q.** What does the source list for `Cc1c(C(=O)Nc2nnnn2C)ccc(OC(F)(F)F)c1NC(=O)C1CCOCC1` [Compound 1.010]?
**A.** ECHCG percentage damage, five-point scale ([1]; POST Application): 5 (5=80-100%); ECHCG percentage damage, five-point scale ([1]; PRE Application): 3 (3=40-59%); AMARE percentage damage, five-point scale ([2]; POST Application): 4 (4=60-79%); AMARE percentage damage, five-point scale ([2]; PRE Application): 5 (5=80-100%); IPOHE percentage damage, five-point scale ([3]; POST Application): 4 (4=60-79%); IPOHE percentage damage, five-point scale ([3]; PRE Application): 2 (2=20-39%); SETFA percentage damage, five-point scale ([4]; POST Application): 5 (5=80-100%); SETFA percentage damage, five-point scale ([4]; PRE Application): 2 (2=20-39%)
